The target in one series is Prothrombin (Homo sapiens, UniProt P00734). The series can be described thus: Inhibitory constant against thrombin (IIa).
A further series concerns the target Serine protease 1 (Homo sapiens, UniProt P07477). Briefly: Inhibitory constant against human trypsin.
A short description of series [1]: (§1) Plasma half-life in dog after peroral administration was evaluated. Format: ADME, organism-based, Canis lupus familiaris. As to conditions: plasma, po.
The nature of series [2]: Concentration required to double the activated partial thromboplastin time (2x APTT) in human plasma. Format: functional.
The nature of series [3]: Maximum plasma concentration in dog after administration of 1 mg/kg dose of compound. Format: ADME, organism-based, Canis lupus familiaris. On the set-up: dose 1 mg/kg.
Series [4] in a line: Maximum plasma concentration in dog after administration of 0.5 mg/kg dose of compound. Format: ADME, organism-based, Canis lupus familiaris. Also noted: dose 0.5 mg/kg.
Series [5] in a line: Maximum plasma concentration in dog after administration of 0.7 mg/kg dose of compound. In kind it is ADME, organism-based, Canis lupus familiaris. Also noted: dose 0.7 mg/kg.
Series [6] can be described thus: Maximum plasma concentration in dog after peroral administration of 0.65 mg/kg dose of compound. In kind it is ADME, organism-based, Canis lupus familiaris. Also noted: dose 0.65 mg/kg, route oral. Particulars: po.
A short description of series [7]: Maximum plasma concentration in rat after peroral administration of 10 mg/kg dose of compound. Format: ADME, organism-based. On the set-up: dose 10 mg/kg, route oral. Particulars: po.
Series [8] in a line: Plasma half-life (5 mg/kg) in african green monkey after intravenous administration. Format: ADME, organism-based. As to conditions: chlorocebus aethiops.
Series [9] can be described thus: Oral bioavailability in rat (dose 10 mg/kg). Format: ADME, organism-based. As to conditions: in vivo.
The nature of series [10]: Plasma half-life ([…] mg/kg) in rat after intravenous administration. As to conditions: 10 mg/kg. In kind it is ADME, organism-based.
Series [11] is described as follows: Oral bioavailability in Rhesus monkey (dose 5 mg/kg). Format: ADME, organism-based, Macaca mulatta. Particulars: in vivo.
A short description of series [12]: Oral bioavailability in dog after administration of 0.65 mg/kg of compound. Format: ADME, organism-based, Canis lupus familiaris. As to conditions: in vivo.
The next series relates to Canis familiaris. Described as §1. Format: ADME, organism-based, Canis lupus familiaris. Particulars: in vivo, po.
Series [13] can be described thus: Oral bioavailability in african green monkey after administration of 5 mg/kg of compound. In kind it is ADME, organism-based. Particulars: chlorocebus aethiops, in vivo.
Series [14] can be described thus: Plasma half-life (5 mg/kg) in rhesus monkey after intravenous administration. Format: ADME, organism-based, Macaca mulatta.
A short description of series [15]: Maximum plasma concentration in african green monkey after peroral administration of 5 mg/kg dose of compound. Format: ADME, organism-based. On the set-up: dose 5 mg/kg, route oral. As to conditions: chlorocebus aethiops, po.
Series [16] in a line: Plasma half-life (0.65 mg/kg) dog after intravenous administration. In kind it is ADME, organism-based, Canis lupus familiaris.
The nature of series [17]: Maximum plasma concentration in rhesus monkey after peroral administration of 5 mg/kg dose of compound. In kind it is ADME, organism-based, Macaca mulatta. Also noted: dose 5 mg/kg, route oral. Particulars: po.
Another series in a line: in vivo. As to conditions: dog, iv, 1 mg/kg.
Series [18] is described as follows: Oral bioavailability in dog after administration of 1 mg/kg of compound. Format: ADME, organism-based, Canis lupus familiaris. Particulars: in vivo.
The nature of series [19]: Maximum plasma concentration in dog after peroral administration of 1 mg/kg dose of compound. Format: ADME, organism-based, Canis lupus familiaris. On the set-up: dose 1 mg/kg, route oral. Particulars: po.

Each structure is given as a SMILES string.

Serine protease 1, sequence (P07477 whole entry): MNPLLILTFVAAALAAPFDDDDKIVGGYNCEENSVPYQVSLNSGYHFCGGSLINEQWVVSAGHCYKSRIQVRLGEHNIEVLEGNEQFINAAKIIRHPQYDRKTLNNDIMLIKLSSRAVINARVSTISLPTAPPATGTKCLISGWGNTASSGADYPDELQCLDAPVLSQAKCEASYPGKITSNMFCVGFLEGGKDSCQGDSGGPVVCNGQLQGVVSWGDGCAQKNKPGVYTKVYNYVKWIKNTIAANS

For `Cc1cnc(NCCc2ccccc2)c(=O)n1CC(=O)NCc1cccnc1`, the inhibitory constant (Ki) on Prothrombin is 1.2 µM; at Serine protease 1 it was 898 µM.

As to `Cc1cnc(NCC(F)(F)c2ccccc2)c(=O)n1CC(=O)NCc1ncccc1F`, the Ki is 0.0068 µM on Prothrombin and 501 µM at Serine protease 1. This compound had a half-life in [1] of 2 h. For the same compound, the “2x aPTT” value in series [2] came out at 1.26 µM. Further, the Cmax in [3] came to 3730 nM.

In the case of `Cc1nc(N)ccc1CNC(=O)Cn1c(C)cnc(NCCc2ccccn2)c1=O`, the results for the inhibition constant (Ki) on Prothrombin and at Serine protease 1 were 0.00027 µM and 3.6 µM, respectively. Further, in series [2], the “2x aPTT” value came out at 0.31 µM.

In the case of `Cc1ccnc(CNC(=O)Cn2c(Cl)cnc(NCC(F)(F)c3ccccn3)c2=O)c1F`, the Ki at Prothrombin amounted to 0.0009 µM; on Serine protease 1, 80 µM. Besides, the half-life in [1] is 3.2 h. The “2x aPTT” value in series [2] came to 0.48 µM. Besides, the Cmax in series [3] amounted to 670 nM.

In the case of `Cc1nc(N)ccc1CNC(=O)Cn1c(C)cnc(NCC(F)(F)c2ccccc2)c1=O`, the inhibition constant Ki at Serine protease 1 was determined as 0.855 µM.

For the compound `Cc1nc(N)ccc1CNC(=O)Cn1c(C)cnc(NCCc2cccnc2)c1=O`, the results for the Ki at Prothrombin and on Serine protease 1 were 0.00054 µM and 3.8 µM, respectively. The “2x aPTT” value in [2] amounted to 0.28 µM.

For `Cc1ccnc(CNC(=O)Cn2c(Cl)cnc(NCC(F)(F)c3ccccn3)c2=O)c1`, the Ki on Prothrombin came out at 0.0053 µM; at Serine protease 1, 429 µM. For the same compound, the half-life in series [1] was 2.1 h. In addition, the “2x aPTT” value in [2] came to 0.91 µM. This compound had a Cmax in series [3] of 2320 nM.

Consider `COc1ccnc(CNC(=O)Cn2c(Cl)cnc(NCC(F)(F)c3ccccn3)c2=O)c1`, for which the inhibition constant (Ki) is 0.0036 µM at Prothrombin and 665 µM on Serine protease 1. Moreover, the half-life in series [1] is 2 h. Further, the Cmax in series [4] was determined as 530 nM. In addition, in series [2], the “2x aPTT” value was 0.71 µM.

In the case of `Cc1cnc(NCCc2ccccc2)c(=O)n1CC(=O)NCc1ccncc1`, the values for the inhibition constant Ki at Prothrombin and on Serine protease 1 were 17 µM and 251 µM, respectively.

As to `Cc1nc(N)ccc1CNC(=O)Cn1c(C)cnc(NCCc2ccncc2)c1=O`, the Ki on Prothrombin stood at 0.0016 µM; on Serine protease 1, 4.6 µM. For the same compound, the “2x aPTT” value in [2] stood at 0.45 µM.

Take `O=C(Cn1c(Cl)cnc(NCC(F)(F)c2ccccn2)c1=O)NCc1ncccc1Cl`: the inhibition constant Ki on Prothrombin was 0.0079 µM; on Serine protease 1, 567 µM. In series [1], this compound gave a half-life of 5.7 h. In series [2], the “2x aPTT” value came to 1.41 µM. The compound further gave a Cmax in series [3] of 62 nM.

As to `Cc1ccnc(CNC(=O)Cn2c(C)cnc(NCC(F)(F)c3ccccc3)c2=O)c1F`, the inhibition constant (Ki) on Prothrombin is 0.0012 µM; on Serine protease 1, 40 µM. The half-life in series [1] was 0.7 h. The “2x aPTT” value in series [2] amounted to 0.72 µM. In addition, the concentration in series [3] peaked (Cmax) at 1830 nM.

`Cc1ccnc(CNC(=O)Cn2c(C)cnc(NCC(F)(F)c3ccccn3)c2=O)c1F` displayed a Cmax in series [5] of 1660 nM. Moreover, the half-life in [1] was 1 h. The Ki at Serine protease 1 stood at 118 µM. Moreover, the “2x aPTT” value in [2] was 0.48 µM.

`Cc1nc(N)ccc1CNC(=O)Cn1c(C)cnc(NCC(F)(F)c2ccccn2)c1=O` came in with an inhibition constant (Ki) at Serine protease 1 of 0.8 µM. In addition, the “2x aPTT” value in [2] stood at 0.2 µM.

With `Cc1cnc(NCCc2ccccc2)c(=O)n1CC(=O)NCc1ccccn1`, the figures for the Ki at Prothrombin and on Serine protease 1 were 0.39 µM and above 1000 µM, respectively.

With `O=C(Cn1c(Cl)cnc(NCC(F)(F)c2ccccn2)c1=O)NCc1ncccc1F` [DPOC-4088], the highest concentration (Cmax) in series [6] was 1160 nM; in series [7], 1060 nM; in series [15] it was 1710 nM; in [3], 1380 nM; in series [17], 310 nM. Further, the Ki worked out at 0.0052 µM at Prothrombin and 202 µM on Serine protease 1. The half-life in series [8] is 1.6 h; in [10], 0.42 h; in [14], 0.73 h; in series [16], 4.48 h. Besides, the bioavailability in [9] came to 23%; in series [11], 5.2%; in series [12], 66%; in series [13] it was 66%. The same compound gave a T1/2 with Canis familiaris of 6.6 h. For the same compound, the “2x aPTT” value in series [2] was 0.78 µM.

As to `Cc1nc(N)ccc1CNC(=O)Cn1c(C)cnc(NCCc2ccccc2)c1=O` [L-375378], the “2x aPTT” value in series [2] came out at 0.41 µM.

As to `Cc1cnc(NCC(F)(F)c2ccccn2)c(=O)n1CC(=O)NCc1ncccc1F`, the peak concentration (Cmax) in series [7] stood at 2160 nM; in [19], 5640 nM; in [3], 5640 nM; in series [17], 1100 nM. For the same compound, the bioavailability was found to be 55% in series [9], 87% in series [18] and 12% in [11]. Also, the half-life in “in vivo” is 3.5 h; in [10], 0.57 h; in [1], 3.5 h; in series [14] it was 0.99 h. Moreover, the Ki at Serine protease 1 was 252 µM. Also, in series [2], the “2x aPTT” value is 0.67 µM.

With `Cc1cnc(NCC(F)(F)c2ccccc2)c(=O)n1CC(=O)NCc1cc(Cl)ccn1`, the Ki stood at 0.0013 µM on Prothrombin and 47 µM on Serine protease 1. Further, in [2], the “2x aPTT” value amounted to 0.89 µM.

Take `Cc1ncccc1CNC(=O)Cn1c(C)cnc(NCCc2ccccc2)c1=O`: the values for the Ki at Prothrombin and at Serine protease 1 were 0.28 µM and above 100 µM, respectively.

With `Cc1nc(N)ccc1CNC(=O)Cn1c(C)cnc(NCC(C)(C)c2ccccc2)c1=O`, the Ki at Prothrombin worked out at 0.0011 µM; on Serine protease 1 it was 0.8 µM. In addition, in series [2], the “2x aPTT” value amounted to 0.5 µM.

As for `Cc1cnc(NCC(F)(F)c2ccccn2)c(=O)n1CC(=O)NCc1ccccn1`, the figures for the inhibitory constant (Ki) at Prothrombin and at Serine protease 1 were 0.015 µM and above 1000 µM, respectively. Moreover, the “2x aPTT” value in series [2] amounted to 2.2 µM.

`Cc1nc(N)ccc1CNC(=O)Cn1c(C)cnc(NCC(C)c2ccccc2)c1=O` (centres undefined): the Ki at Prothrombin came out at 0.0011 µM; on Serine protease 1, 1.6 µM. Moreover, the “2x aPTT” value in series [2] was determined as 0.61 µM.

For the compound `Cc1ccnc(CNC(=O)Cn2c(C)cnc(NCC(F)(F)c3ccccc3)c2=O)c1`, the Ki at Prothrombin is 0.0048 µM; at Serine protease 1 it was 270 µM. In addition, in series [2], the “2x aPTT” value worked out at 1.7 µM.

As for `COc1cccnc1CNC(=O)Cn1c(Cl)cnc(NCC(F)(F)c2ccccn2)c1=O`, the Ki at Prothrombin stood at 0.015 µM; on Serine protease 1 it was 706 µM. In [1], the half-life is 2.3 h. Moreover, the “2x aPTT” value in series [2] came out at 2.19 µM. In addition, the peak level in series [3] (Cmax) was 900 nM.

With `N#Cc1cnc(NCC(F)(F)c2ccccn2)c(=O)n1CC(=O)NCc1ncccc1F`, the inhibitory constant (Ki) on Prothrombin came out at 0.0023 µM; on Serine protease 1, 213 µM. In series [1], this compound gave a half-life of 9.7 h. The “2x aPTT” value in [2] worked out at 0.41 µM. For the same compound, the maximum concentration (Cmax) in series [3] stood at 1170 nM.

Take `Cc1ccnc(CNC(=O)Cn2c(C#N)cnc(NCC(F)(F)c3ccccn3)c2=O)c1F`: the Ki at Prothrombin came to 0.0004 µM; on Serine protease 1 it was 61 µM. The same compound showed a half-life in [1] of 2.4 h. Further, the “2x aPTT” value in [2] is 0.31 µM. The compound further returned a Cmax in series [3] of 1700 nM.

Turning to `O=C(Cn1c(C(F)(F)F)cnc(NCC(F)(F)c2ccccn2)c1=O)NCc1ncccc1F`, the Ki on Prothrombin came to 0.044 µM; at Serine protease 1 it was 136 µM.

For `O=C(Cn1ccnc(NCC(F)(F)c2ccccn2)c1=O)NCc1ncccc1F`, the Ki on Prothrombin is 0.14 µM; at Serine protease 1 it was above 1000 µM.

In the case of `Cc1ccnc(CNC(=O)Cn2c(C)cnc(NCC(F)(F)c3ccccn3)c2=O)c1`, the results for the inhibitory constant (Ki) at Prothrombin and at Serine protease 1 were 0.0028 µM and 431 µM, respectively. In series [1], this compound gave a half-life of 2.4 h. The “2x aPTT” value in series [2] was found to be 0.59 µM. Besides, the Cmax in series [3] stood at 4120 nM.
